Earlier results on twelve compounds are cited in patent US9820956B2, “Compositions and methods for treating metabolic disorders” (PreKUlab, Ltd., priority 2003, dated 2017).

The Km is the concentration of substrate that gives half-maximal velocity.

Each structure is given as a SMILES string. Like-named read-outs stand apart in the source and are kept apart here.

Data set [1] concerns BBB transport system for basic amino acids.
In data set [2] the test system is BBB transport system for acidic amino acids.
In data set [3] the test system is intestinal epithelia transport.
Data set [4] concerns Phe transport in Caco-2 cells. Particulars: for % inhibition of Phe transport: 10 μM Phe, 1 mM of each competing amino acid, Caco-2 monolayers; for inhibition of Phe transport in human intestinal epithelial cells (in words): Caco-2.
For data set [5], the system named is LNAA transport system in the BBB.
Setting [6] is: absolute Km at BBB, basic amino acids, read-out: Km.
Where [7] appears, read: apparent Km at BBB, basic aa's, read-out: Km(app).
The mark [8] stands for this setting: absolute Km at BBB, neutral amino acid system, read-out: Km.
Setting [9] is: apparent Km at BBB in presence of competing LNAAs, LNAA's, read-out: Km(app).

Turning to `N=C(N)NCCC[C@H](N)C(=O)O` [Arg, arginine], the results for the Km in data set [1] (setting [6]) and in data set [1] (setting [7]) were 90 µM and 400 µM, respectively.
For `N[C@@H](CCC(=O)O)C(=O)O` [Glu], the Km in data set [2] is 40 µM.
With `N[C@@H](Cc1c[nH]cn1)C(=O)O` [His, histidine], the Km in data set [3] is 6000 µM; in data set [1] (setting [6]), 280 µM; in data set [1] (setting [7]), 1100 µM. Further, the “% inhibition of Phe transport” value in data set [4] is 33%.
For `CC(C)C[C@H](N)C(=O)O` [Leu, leucine], the Km in data set [5] (setting [8]) was 150 µM; in data set [5] (setting [9]), 530 µM; in data set [3] it was 2000 µM. In addition, the “% inhibition of Phe transport” value in data set [4] is reported as 55%. Moreover, the “inhibition of Phe transport in human intestinal epithelial cells (in words)” value in data set [4] is reported as “strong inhibitor”.
For the compound `NCCCC[C@H](N)C(=O)O` [Lys, lysine], in data set [4], the “% inhibition of Phe transport” value was 50% and the “inhibition of Phe transport in human intestinal epithelial cells (in words)” value is “strong inhibition”. Also, in data set [1] (setting [6]), the Km is 100 µM. Besides, the Km in data set [1] (setting [7]) was 250 µM.
On to `CSCC[C@H](N)C(=O)O` [Met, methionine], for which the values for the Km in data set [5] (setting [8]), in data set [5] (setting [9]) and in data set [3] were 190 µM, 770 µM and 5000 µM, respectively.
As for `N[C@@H](Cc1ccccc1)C(=O)O` [Phe, phenylalanine], the Km in data set [5] (setting [8]) was 120 µM; in data set [5] (setting [9]), 450 µM; in data set [3] it was 1000 µM; in data set [4] (Caco-2, measured by Hidalgo, read-out: Km for Phe at the intestinal cell transport system) it was 560 µM.
`C[C@@H](O)[C@H](N)C(=O)O` [Threo]: the Km in data set [5] (setting [8]) was 730 µM; in data set [5] (setting [9]) it was 3000 µM.
As to `N[C@@H](Cc1c[nH]c2ccccc12)C(=O)O` [Trp, tryptophan], the Km in data set [5] (setting [8]) was 190 µM; in data set [5] (setting [9]) it was 710 µM. Besides, the “% inhibition of Phe transport” value in data set [4] is reported as 36%.
In the case of `N[C@@H](Cc1ccc(O)cc1)C(=O)O` [Tyr, tyrosine], the figures for the Km in data set [5] (setting [8]) and in data set [5] (setting [9]) were 160 µM and 580 µM, respectively. In addition, in data set [4], the “% inhibition of Phe transport” value is listed as 45%.
Turning to `CC(C)[C@H](N)C(=O)O` [Val, valine], the Km in data set [5] (setting [8]) is 630 µM; in data set [5] (setting [9]), 2500 µM; in data set [3], 3000 µM.
In the case of `CC[C@H](C)[C@H](N)C(=O)O` [iLeu, isoleucine], the results for the Km in data set [5] (setting [8]) and in data set [5] (setting [9]) were 330 µM and 1300 µM, respectively.
